Test results reported in the NIST ThermoML archive (doi:10.1021/acs.jced.7b00192).

Test: molar heat capacity at constant pressure; mn = molality of the nth substance listed, in mol/kg
Conditions: 10000 kPa, Liquid, Large sample (1 g) DSC

[K+].[OH-] [potassium hydroxide] + O
molar heat capacity at constant pressure [J/K/mol]
Conditions	m1 = 0.201	m1 = 0.5009	m1 = 0.999	m1 = 2.012	m1 = 3	m1 = 4.505	m1 = 6.002
325 K	74.45	73.81	72.8	71.28	70.15	69.18	68.41
337.4 K	74.58	73.96	73.05	71.64	70.55	69.5	68.84
349.7 K	74.72	74.09	–	–	–	–	69.19
349.8 K	–	–	73.21	71.81	70.8	69.82	–
362.1 K	74.89	74.29	73.45	72.13	71.12	70.2	69.62
374.5 K	75.11	74.49	73.67	72.43	71.42	70.5	69.98
386.8 K	75.37	74.76	73.96	72.65	71.69	70.78	70.31
399.2 K	75.69	75.06	74.27	72.97	72.03	71.12	70.62
411.5 K	–	–	–	–	–	–	70.86
411.6 K	76.08	75.46	74.6	73.21	72.28	71.37	–
423.9 K	76.54	75.88	74.91	73.59	72.62	71.69	71.13
436.3 K	77.1	76.36	75.36	73.96	72.91	71.95	71.43
448.6 K	77.74	–	–	–	–	–	71.78
448.7 K	–	76.95	75.9	74.44	73.28	72.37	–
461 K	78.47	77.61	76.51	74.86	73.71	72.74	72.04
473.4 K	79.36	78.39	77.23	75.47	74.29	73.14	72.44
485.7 K	80.4	79.34	–	–	74.75	73.56	72.83
485.8 K	–	–	78	76.01	–	–	–
498.1 K	81.6	80.4	78.94	76.7	75.36	74.05	73.27
510.5 K	83.06	81.72	80	77.49	75.91	74.43	73.69
522.8 K	84.83	83.26	81.23	–	76.7	74.99	74.16
522.9 K	–	–	–	78.41	–	–	–
535.2 K	87.02	85.12	82.83	79.52	77.5	75.54	74.51
547.6 K	89.76	87.48	84.7	80.95	78.49	76.26	75.11
555 K	91.77	89.19	86.04	81.81	79.19	76.73	75.41
564.9 K	95.05	91.89	88.12	83.07	80.09	77.46	75.77
